In article PMC3772510 (ChemMedChem, 2011):
In brackets after ≈: the same amount, converted by molar mass.

Assay: aqueous solubility
Format: physicochemical

## COc1ccc(C2=N[C@@H](c3ccc(Cl)cc3)[C@@H](c3ccc(Cl)cc3)N2C(=O)N2CCNC(=O)C2)c(OC(C)C)c1 [Nutlin-3a, nutlin-3a]
  aqueous solubility: 100 µg/mL (≈ 172 µM)
